Among the test systems are CCRF-CEM leukemia; HCT-15 colon; HL-60(TB) leukemia; MOLT-4 leukemia; NCI-H460 lung; RPMI-8226 leukemia; SF-295 CNS; SF-539 CNS; SK-MEL-28 melanoma; SW-620 colon.
Assay in all cases: inhibition of tumour cell growth, NCI panel, 48 h

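Cultured in 96-well plates, cells were exposed to test compound for 48 hours across five concentrations. The concentration for 50% growth inhibition is given as GI50. At the TGI there is no net growth.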

For `O=C(/C=C/c1c(O)ccc2ccccc12)c1ccccc1`, the TGI with CCRF-CEM leukemia was > 100 µM; with HCT-15 colon it was > 100 µM; in the assay on HL-60(TB) leukemia, > 100 µM; in the assay with MOLT-4 leukemia, > 100 µM; in the assay with NCI-H460 lung it was > 100 µM; with RPMI-8226 leukemia, 80.6 µM. The TGI in the assay on SF-295 CNS was > 100 µM; in the assay with SF-539 CNS it was > 100 µM; in the assay on SK-MEL-28 melanoma it was > 100 µM; with SW-620 colon, 83.7 µM.

For `Cc1[nH]c2ccccc2c1C1Cc2ccccc2N1C(=O)/C(Cl)=C/c1ccccc1` (configuration not stated), the TGI with CCRF-CEM leukemia, in the assay on HCT-15 colon, with HL-60(TB) leukemia, with MOLT-4 leukemia, in the assay on NCI-H460 lung and in the assay on RPMI-8226 leukemia was > 100 µM throughout. Besides, the TGI in the assay on SF-295 CNS, with SF-539 CNS, in the assay with SK-MEL-28 melanoma and in the assay on SW-620 colon was > 100 µM each time.

With `C/C=C(\C)CC/C=C/CO[Si](C)(C)C(C)(C)C`, the TGI in the assay on CCRF-CEM leukemia is 49.6 µM; in the assay on HCT-15 colon, > 100 µM; in the assay on HL-60(TB) leukemia, 52.1 µM; in the assay with MOLT-4 leukemia it was 81.3 µM; with NCI-H460 lung it was > 100 µM; in the assay with RPMI-8226 leukemia, > 100 µM. Further, the TGI in the assay with SF-295 CNS, in the assay with SF-539 CNS, in the assay with SK-MEL-28 melanoma and in the assay on SW-620 colon was > 100 µM in each case.

`COC(=O)[C@H](Cc1c[nH]c2ccccc12)NC(=O)[C@@H](OC)[C@@H]1Cc2cc3cc(OC4CC(OC5CC(O)C(O)C(C)O5)C(O)C(C)O4)c(C)c(O)c3c(O)c2C(=O)[C@H]1OC1CC(OC2CC(OC3CC(C)(O)C(O)C(C)O3)C(O)C(C)O2)C(O)C(C)O1` (some centres not stated): the GI50 is 0.0064 µM with CCRF-CEM leukemia; 0.441 µM in the assay with HCT-15 colon; 0.0119 µM in the assay with HL-60(TB) leukemia; 0.00654 µM in the assay with MOLT-4 leukemia; 0.00611 µM in the assay on NCI-H460 lung; 0.00557 µM in the assay with RPMI-8226 leukemia. The GI50 is 0.0112 µM in the assay on SF-295 CNS, 0.00546 µM with SF-539 CNS, 0.00424 µM with SK-MEL-28 melanoma and 0.00863 µM with SW-620 colon. Also, the TGI with CCRF-CEM leukemia is > 6.28 µM; in the assay with HCT-15 colon, > 16.5 µM; in the assay with HL-60(TB) leukemia it was 0.386 µM; with NCI-H460 lung, > 5.24 µM; with RPMI-8226 leukemia it was 0.0607 µM; in the assay on SF-295 CNS, 3.21 µM. Besides, the TGI in the assay with SF-539 CNS came out at 0.0244 µM; with SK-MEL-28 melanoma, 0.0193 µM.

In the case of `CCOc1ccc2c(c1)[n+]([O-])c(-c1nc3ccccc3s1)c(N)[n+]2[O-]`, the TGI in the assay with CCRF-CEM leukemia, with HCT-15 colon, in the assay with HL-60(TB) leukemia, with MOLT-4 leukemia, in the assay with NCI-H460 lung and with RPMI-8226 leukemia was > 100 µM each time. Besides, the TGI with SF-295 CNS, in the assay on SF-539 CNS, in the assay with SK-MEL-28 melanoma and in the assay with SW-620 colon was > 100 µM throughout.

Consider `COc1cc(NS(=O)(=O)c2ccc(-c3cnc(C4CC4)o3)cc2)ccc1F`, for which the GI50 was 0.326 µM in the assay with CCRF-CEM leukemia; 0.198 µM in the assay on HCT-15 colon; 0.247 µM in the assay on HL-60(TB) leukemia; 0.564 µM in the assay with MOLT-4 leukemia; 0.447 µM with NCI-H460 lung; 0.457 µM with RPMI-8226 leukemia. Moreover, the GI50 was 0.205 µM in the assay with SF-295 CNS, 0.274 µM in the assay with SF-539 CNS, 1.77 µM in the assay with SK-MEL-28 melanoma and 0.287 µM in the assay with SW-620 colon. Further, the TGI in the assay with CCRF-CEM leukemia was > 100 µM; with HCT-15 colon it was 17.1 µM; in the assay on HL-60(TB) leukemia, 6.86 µM; in the assay with MOLT-4 leukemia, > 100 µM; with NCI-H460 lung, 14.4 µM; with RPMI-8226 leukemia, 39.5 µM. For the same compound, the TGI was 1.46 µM in the assay with SF-295 CNS, 2.18 µM with SF-539 CNS, 23.5 µM in the assay on SK-MEL-28 melanoma and > 61.3 µM in the assay on SW-620 colon.

For `COc1cc2c3c(n(C)c(=O)c2cc1OC)-c1cc2c(cc1/C3=C\CNCCCN)OCO2`, the GI50 with CCRF-CEM leukemia is 0.0239 µM; in the assay with HCT-15 colon, 3.13 µM; in the assay with HL-60(TB) leukemia, 0.171 µM; in the assay with MOLT-4 leukemia it was 0.0118 µM; with NCI-H460 lung, 0.75 µM; with RPMI-8226 leukemia, 0.414 µM. The GI50 in the assay on SF-295 CNS is 1.08 µM; with SF-539 CNS, 0.834 µM; in the assay with SK-MEL-28 melanoma, 2.14 µM; in the assay with SW-620 colon, 0.222 µM. Besides, the TGI with CCRF-CEM leukemia worked out at 0.15 µM; with HCT-15 colon, 17.7 µM; with HL-60(TB) leukemia, 0.782 µM; in the assay with MOLT-4 leukemia, 0.0502 µM; in the assay on NCI-H460 lung, 12.9 µM; with RPMI-8226 leukemia, 2.15 µM. Besides, the TGI is 15.9 µM with SF-295 CNS, 7.29 µM in the assay on SF-539 CNS, 39.6 µM in the assay on SK-MEL-28 melanoma and 3.94 µM in the assay with SW-620 colon.

Consider `CCC(=O)c1c(C(F)(F)F)n([O-])c2ccc(C)cc2[n+]1=O`, for which the GI50 was 18.2 µM in the assay with CCRF-CEM leukemia; 3.05 µM in the assay with HCT-15 colon; 4.82 µM in the assay with HL-60(TB) leukemia; 14.1 µM in the assay with MOLT-4 leukemia; 3.95 µM in the assay on NCI-H460 lung; 12.4 µM with RPMI-8226 leukemia. Also, the GI50 was 3.93 µM with SF-295 CNS, 9.19 µM in the assay with SF-539 CNS, 28.2 µM in the assay on SK-MEL-28 melanoma and 11.7 µM with SW-620 colon. For the same compound, the TGI is > 50 µM in the assay with CCRF-CEM leukemia; > 50 µM with HCT-15 colon; > 50 µM in the assay with HL-60(TB) leukemia; > 50 µM in the assay with MOLT-4 leukemia; 18.3 µM in the assay on NCI-H460 lung; > 50 µM in the assay with RPMI-8226 leukemia. For the same compound, the TGI in the assay on SF-295 CNS is 15.8 µM; with SF-539 CNS it was 25.3 µM; with SK-MEL-28 melanoma, > 50 µM; in the assay with SW-620 colon it was > 50 µM.

Consider `COc1ccccc1Cn1cc2c(c1-c1ccccc1)CCc1cnoc1-2`, for which the GI50 in the assay with CCRF-CEM leukemia was 2.85 µM; with HCT-15 colon, 1.71 µM; with HL-60(TB) leukemia, 1.32 µM; in the assay on MOLT-4 leukemia it was 3.42 µM; with NCI-H460 lung, 2.65 µM; with RPMI-8226 leukemia it was 3.78 µM. Also, the GI50 with SF-295 CNS was 1.09 µM; in the assay with SF-539 CNS, 2.57 µM; with SK-MEL-28 melanoma, 27 µM; in the assay on SW-620 colon it was 1.83 µM. In addition, the TGI is > 100 µM in the assay with CCRF-CEM leukemia; > 100 µM in the assay on HCT-15 colon; 8.36 µM in the assay on HL-60(TB) leukemia; > 100 µM with MOLT-4 leukemia; 18.1 µM in the assay on NCI-H460 lung; > 100 µM with RPMI-8226 leukemia. Further, the TGI in the assay with SF-295 CNS is 9.52 µM; in the assay on SK-MEL-28 melanoma, > 100 µM; in the assay on SW-620 colon, > 100 µM.

(Values after PubChem BioAssay (NCI).)
